Source: the NIST ThermoML archive (doi:10.1021/je2013704)

Test: mn = molality of the nth substance listed, in mol/kg
Details: Liquid, Vibrating tube method

[Cl-].[K+] [potassium chloride] + O
mass density [kg/m3]
Details | 298.12 K | 323.07 K | 348.04 K | 372.99 K | 397.97 K | 422.94 K | 447.94 K | 472.96 K
900 kPa, m1 = 1.06 | 1044.2 | 1034.14 | 1020.74 | 1004.76 | 986.31 | 965.57 | 942.89 | –
900 kPa, m1 = 3.15 | 1124.07 | 1112.58 | 1098.82 | 1083.32 | 1065.9 | 1046.73 | 1025.62 | –
900 kPa, m1 = 4.49 | 1168.21 | 1156.09 | 1142.21 | 1126.88 | 1109.9 | 1091.46 | 1071.39 | –
9900 kPa, m1 = 1.06 | 1047.96 | 1037.83 | 1024.46 | 1008.64 | 990.53 | 970.25 | 948.08 | 923.68
9900 kPa, m1 = 3.15 | 1127.47 | 1115.91 | 1102.28 | 1086.89 | 1069.71 | 1050.87 | 1030.11 | 1007.94
9900 kPa, m1 = 4.49 | 1171.42 | 1159.3 | 1145.43 | 1130.26 | 1113.48 | 1095.41 | 1075.5 | 1054.54
19900 kPa, m1 = 1.06 | 1052.02 | 1041.82 | 1028.51 | 1012.91 | 995.11 | 975.13 | 953.62 | 929.93
19900 kPa, m1 = 3.15 | 1131.16 | 1119.53 | 1105.97 | 1090.74 | 1073.82 | 1055.23 | 1034.96 | 1013.25
19900 kPa, m1 = 4.49 | 1174.92 | 1162.77 | 1148.98 | 1133.92 | 1117.4 | 1099.54 | 1080.06 | 1059.47
29900 kPa, m1 = 1.06 | 1056.08 | 1045.67 | 1032.5 | 1017.11 | 999.53 | 979.97 | 958.88 | 935.86
29900 kPa, m1 = 3.15 | 1134.81 | 1123.11 | 1109.59 | 1094.53 | 1077.73 | 1059.51 | 1039.57 | 1018.38
29900 kPa, m1 = 4.49 | 1178.38 | 1166.16 | 1152.52 | 1137.58 | 1121.12 | 1103.53 | 1084.38 | 1064.17
39900 kPa, m1 = 1.06 | 1060 | 1049.58 | 1036.42 | 1021.1 | 1003.82 | 984.63 | 963.97 | 941.62
39900 kPa, m1 = 3.15 | 1138.35 | 1126.71 | 1113.24 | 1098.25 | 1081.65 | 1063.66 | 1044.09 | 1023.39
39900 kPa, m1 = 4.49 | 1181.79 | 1169.63 | 1155.93 | 1141.11 | 1124.86 | 1107.49 | 1088.62 | 1068.85
49900 kPa, m1 = 1.06 | 1063.86 | 1053.35 | 1040.18 | 1025.08 | 1008.02 | 989.18 | 968.88 | 947.07
49900 kPa, m1 = 3.15 | 1141.9 | 1130.16 | 1116.68 | 1101.91 | 1085.49 | 1067.79 | 1048.45 | 1028.19
49900 kPa, m1 = 4.49 | 1185.09 | 1172.93 | 1159.38 | 1144.58 | 1128.56 | 1111.34 | 1092.74 | 1073.32
59900 kPa, m1 = 1.06 | 1067.62 | 1057.01 | 1043.91 | 1028.91 | 1012.1 | 993.52 | 973.66 | 952.36
59900 kPa, m1 = 3.15 | 1145.28 | 1133.6 | 1120.15 | 1105.38 | 1089.26 | 1071.77 | 1052.77 | 1032.84
59900 kPa, m1 = 4.49 | 1188.28 | 1176.14 | 1162.56 | 1147.95 | 1132.08 | 1115.08 | 1096.73 | 1077.68
68400 kPa, m1 = 1.06 | 1070.84 | 1060.07 | 1047.14 | 1032.17 | 1015.46 | 997.11 | 977.57 | 956.79
68400 kPa, m1 = 3.15 | 1148.2 | 1136.35 | 1123.07 | 1108.37 | 1092.3 | 1075 | 1056.27 | 1036.57
68400 kPa, m1 = 4.49 | 1191.12 | 1178.8 | 1165.39 | 1150.77 | 1135 | 1118.18 | 1100.1 | 1081.18
